In patent publication US20250320213A1, “Nitrogen-Containing Heterocyclic Compounds” (Pfizer Inc., priority 2024, published 2025):
Where a name gives a salt, the structure may show the parent alone. Read-outs that look alike come from different tables or passages of the source.

Key:
STAT6 = target: T1, STAT6 (Homo sapiens, UniProt P42226); test: STAT6 Reporter Luciferase Assay (IL-13 stimulated HaCaT keratinocyte NanoLuc reporter cells); type: cell-based; conditions: read-out: Reporter EC50
T1 construct: stably transfected HaCaT keratinocyte cell line, which expresses NanoLuc luciferase reporter gene under the transcriptional control of the STAT6 responsive promoter; endogenous in cells; host or cells: HaCaT keratinocyte reporter cell line (stably transfected with a NanoLuc reporter)
T1 sequence (P42226 1-847): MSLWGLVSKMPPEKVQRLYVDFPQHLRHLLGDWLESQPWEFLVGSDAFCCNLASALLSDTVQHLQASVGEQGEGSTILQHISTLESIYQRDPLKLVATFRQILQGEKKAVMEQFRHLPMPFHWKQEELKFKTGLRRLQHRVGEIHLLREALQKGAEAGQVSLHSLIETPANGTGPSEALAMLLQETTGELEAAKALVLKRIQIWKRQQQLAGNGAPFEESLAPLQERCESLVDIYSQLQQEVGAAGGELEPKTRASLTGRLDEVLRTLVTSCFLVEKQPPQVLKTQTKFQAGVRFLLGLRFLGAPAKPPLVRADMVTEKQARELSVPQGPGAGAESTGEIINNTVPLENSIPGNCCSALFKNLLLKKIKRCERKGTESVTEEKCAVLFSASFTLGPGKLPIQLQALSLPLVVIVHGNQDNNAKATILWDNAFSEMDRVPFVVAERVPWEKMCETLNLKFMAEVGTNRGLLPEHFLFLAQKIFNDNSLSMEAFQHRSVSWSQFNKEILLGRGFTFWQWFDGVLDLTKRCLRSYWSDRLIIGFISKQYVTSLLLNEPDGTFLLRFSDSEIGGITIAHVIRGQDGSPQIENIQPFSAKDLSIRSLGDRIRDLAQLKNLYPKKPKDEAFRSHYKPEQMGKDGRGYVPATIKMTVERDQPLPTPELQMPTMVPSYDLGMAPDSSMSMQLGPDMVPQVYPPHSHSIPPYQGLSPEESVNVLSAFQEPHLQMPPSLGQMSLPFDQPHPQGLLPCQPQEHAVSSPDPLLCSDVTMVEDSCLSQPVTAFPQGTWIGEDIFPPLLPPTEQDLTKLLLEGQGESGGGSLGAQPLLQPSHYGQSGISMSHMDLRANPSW
Method in brief: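 Compounds were tested as 11-point, 4-fold series in duplicate, applied for 2 h at 37 °C in low-serum (2% FBS) DMEM. The cells were a stable HaCaT line with NanoLuc under a STAT6-responsive IL-13Ra2 promoter. After 4 h with 0.12 nM IL-13, Nano-Glo luminescence was measured.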

[1] = tested on: CCL17 secretion in peripheral human whole blood; test: Human Whole Blood (HWB) CCL17 TR-FRET Assay (IL-13 stimulated CCL17 secretion); type: cell-based
Experimental: The IC50 (half-maximal concentration required for inhibition) of compounds for the inhibition of CCL17 secretion in peripheral human whole blood, stimulated through the IL-13-IL-13 receptor/IL-4 receptor pathway was evaluated with a TR-FRET sandwich ELISA CCL17 (TARC) Assay Kit (Bioauxilium).
Test compounds (solubilized and serially diluted in DMSO, in an 11 point, 3-fold dilution series in duplicate) were spotted, 80 nL per well, into a 384 well v-bottom polypropylene plate. Human whole blood was collected from a peripheral vein, 714 units of sodium heparin was added for every 50 mL of blood collected. Sixty μL per well of blood was added to the compound plate. The blood plate was incubated for two hours at 37° C. After two hours, CCL17 production was stimulated with the addition of 20 μL per well of IL13 (R&D Systems) in HBSS with calcium and magnesium, with a final concentration of 10 ng/mL IL13. The plate containing blood, compound, and IL-13 was incubated at 37° C. for 48 hours, to allow for CCL17 production. After 48 hours, the plate was centrifuged at 1,500 revolutions per minute (RPM) for 7 minutes, with no braking. The CCL17 TR-FRET Assay Kit detection reagent was prepared according to kit instructions and 4 μL per well of the antibody cocktail was added to a 384-well white low volume non-binding coated plate (Corning). Sixteen μL of serum from the centrifuged blood plate was transferred to the detection plate containing the TR-FRET antibody cocktail. The plate was centrifuged briefly, then covered and incubated 16 hours at room temperature. The plate was then read on an EnVision 2105 multilabel reader (PerkinElmer) with settings for TR-FRET Ratio=10,000×(fluorescence intensity 665 nm/fluorescence intensity 615 nm).

[2] = STAT6 NanoLuc luciferase reporter, IL-13 stimulated HaCaT keratinocyte cells
[3] = Homo sapiens, 48 h, inhibition of CCL17 secretion in human whole blood, 10 ng/mL IL13, 48 hours
[4] = IL-13 stimulated HaCaT STAT6 NanoLuc reporter cells
[5] = Homo sapiens, 48 h, human whole blood, IL-13 stimulated
[6] = Homo sapiens, 48 h, human whole blood, 10 ng/mL IL13, 48 hours
[7] = inhibition of CCL17 secretion in human whole blood, 10 ng/mL IL13, 48 hours

| SMILES | EC50 (STAT6; [2]) [nM] | IC50 [1, 3] [nM] | EC50 (STAT6; [4]) [nM] | other results |
| --- | --- | --- | --- | --- |
| CC(=O)N1CCCc2cc(N3CCc4c(c(C(=O)NCc5ccc(NC(=O)N(C)C)cc5)nn4C(C)C)C3)ccc21 [Example 37, 5-(1-Acetyl-1,2,3,4-tetrahydroquinolin-6-yl)-N-(4-(3,3-dimethylureido)benzyl)-1-isopropyl-4,5,6,7-tetrahydro-1H-pyrazolo[4,3-c]pyridine-3-carboxamide] | 30 | 701 |  |  |
| CC(C)n1nc(C(=O)NCc2ccc(NC(=O)N(C)C)cc2)c2c1C[C@H](C)N(c1ncc(C(=O)N(C)C)cn1)C2 [Example 452, (S)-5-(5-(dimethylcarbamoyl)pyrimidin-2-yl)-N-(4-(3,3-dimethylureido)benzyl)-1-isopropyl-6-methyl-4,5,6,7-tetrahydro-1H-pyrazolo[4,3-c]pyridine-3-carboxamide] |  |  | 3 | IC50 [1, 5]: 16 nM |
| COC[C@H]1CN(C(=O)Nc2ccc(CNC(=O)c3nn(C(C)C)c4c3CN(c3ccc(C(=O)N(C)C)cc3)C[C@@H]4C)cc2)CCN1 [Example 577, (S)-5-(4-(dimethylcarbamoyl)phenyl)-1-isopropyl-N-(4-((R)-3-(methoxymethyl)piperazine-1-carboxamido)benzyl)-7-methyl-4,5,6,7-tetrahydro-1H-pyrazolo[4,3-c]pyridine-3-carboxamide] |  |  | 1 | IC50 [1, 6]: 4 nM |
| CC(C)n1nc(C(=O)NCc2ccc(NC(=O)NCC3COC3)cc2)c2c1CCN(c1ccc(C(=O)N(C)C)cn1)C2 [Example 181, 5-(5-(dimethylcarbamoyl)pyridin-2-yl)-1-isopropyl-N-(4-(3-(oxetan-3-ylmethyl)ureido)benzyl)-4,5,6,7-tetrahydro-1H-pyrazolo[4,3-c]pyridine-3-carboxamide] | 260 | 436 |  |  |
| CCn1nc(C(=O)NCc2ccc(NC(=O)N(C)C)cc2)c2c1C(C(F)(F)F)CN(c1ncc(C(=O)N(C)C)cn1)C2 (single isomer, unassigned) [Example 465, rel-(R or S)-5-(5-(dimethylcarbamoyl)pyrimidin-2-yl)-N-(4-(3,3-dimethylureido)benzyl)-1-ethyl-7-(trifluoromethyl)-4,5,6,7-tetrahydro-1H-pyrazolo[4,3-c]pyridine-3-carboxamide] |  |  | 51.8 | IC50 ([1]; human whole blood, IL-13 stimulated, 48 hours): 682 nM |
| CC(C)n1nc(C(=O)NCc2ccc(NC(=O)N(C)C)cc2)c2c1CCN(c1ccc(N3CCOCCC3=O)cn1)C2 [Example 100, N-(4-(3,3-dimethylureido)benzyl)-1-isopropyl-5-(5-(5-oxo-1,4-oxazepan-4-yl)pyridin-2-yl)-4,5,6,7-tetrahydro-1H-pyrazolo[4,3-c]pyridine-3-carboxamide] | 174 | 1800 |  |  |
| CCn1nc(C(=O)NCc2ccc(NC(=O)N(C)C)cc2)c2c1C(C)CN(c1ncc(C(=O)N(C)C)cn1)C2 (racemic) [Example 531, rac-(R)-5-(5-(dimethylcarbamoyl)pyrimidin-2-yl)-N-(4-(3,3-dimethylureido)benzyl)-1-ethyl-7-methyl-4,5,6,7-tetrahydro-1H-pyrazolo[4,3-c]pyridine-3-carboxamide] |  |  | 1 | IC50 [1, 6]: 14 nM |
| CNC1CN(C(=O)Nc2ccc(CNC(=O)c3nn(C(C)C)c4c3CN(c3ccc(C(=O)N(C)C)cc3)C[C@@H]4C)cc2F)C1 [Example 597, (S)-5-(4-(dimethylcarbamoyl)phenyl)-N-(3-fluoro-4-(3-(methylamino)azetidine-1-carboxamido)benzyl)-1-isopropyl-7-methyl-4,5,6,7-tetrahydro-1H-pyrazolo[4,3-c]pyridine-3-carboxamide] |  |  | 4 | IC50 [1, 6]: 28 nM |
| CC(C1CC1)n1nc(C(=O)NCc2ccc(NC(=O)N(C)C)cc2)c2c1CCN(c1ccc(C(=O)N(C)C)cn1)C2 (single isomer, unassigned) [Example 237, rel-(R or S)-1-(1-cyclopropylethyl)-5-(5-(dimethylcarbamoyl)pyridin-2-yl)-N-(4-(3,3-dimethylureido)benzyl)-4,5,6,7-tetrahydro-1H-pyrazolo[4,3-c]pyridine-3-carboxamide] |  |  | 7 | IC50 [1, 5]: 83 nM |
| Cc1nc(C(=O)NCc2ccc(NC(=O)N(C)C)cc2)c2n1C(C)CN(c1ccc(C(=O)N(C)C)cn1)C2 (racemic) [Example 9, rac-(R)-7-(5-(Dimethylcarbamoyl)pyridin-2-yl)-N-(4-(3,3-dimethylureido)benzyl)-3,5-dimethyl-5,6,7,8-tetrahydroimidazo[1,5-a]pyrazine-1-carboxamide formate] | 15 |  |  | IC50 [1, 7]: 27 nM |
| CC(C)n1nc(C(=O)NCc2ccc(NC(=O)N(C)C)cc2)c2c1CCN(c1ccc(N3CC[C@H](F)C3=O)cn1)C2 [Example 84, (S)-N-(4-(3,3-dimethylureido)benzyl)-5-(5-(3-fluoro-2-oxopyrrolidin-1-yl)pyridin-2-yl)-1-isopropyl-4,5,6,7-tetrahydro-1H-pyrazolo[4,3-c]pyridine-3-carboxamide] | 2 | 56 |  |  |
| CNC(=O)c1ccc(CNC(=O)c2nc(C3CC3)n3c2CN(c2ccc(C(=O)N(C)C)cn2)CC3)cc1 [Example 16, 3-cyclopropyl-7-(5-(dimethylcarbamoyl)pyridin-2-yl)-N-(4-(methylcarbamoyl)benzyl)-5,6,7,8-tetrahydroimidazo[1,5-a]pyrazine-1-carboxamide] | 261 | 791 |  |  |
| CC(C)n1nc(C(=O)NCc2ccc(NC(=O)N(C)C)cc2)c2c1CCN(c1ccc(C3CCCO3)cn1)C2 (racemic) [Example 322, rac-(R)—N-(4-(3,3-Dimethylureido)benzyl)-1-isopropyl-5-(5-(tetrahydrofuran-2-yl)pyridin-2-yl)-4,5,6,7-tetrahydro-1H-pyrazolo[4,3-c]pyridine-3-carboxamide] |  |  | 77 | IC50 [1, 5]: 1350 nM |
| CC(C)n1nc(C(=O)NCc2ccc(NC(=O)N3CC4(CCN(C)CC4)C3)cc2)c2c1[C@@H](C)CN(c1ccc(-n3ccccc3=O)cn1)C2 [Example 634, (S)-1-isopropyl-7-methyl-N-(4-(7-methyl-2,7-diazaspiro[3.5]nonane-2-carboxamido)benzyl)-5-(2-oxo-2H-[1,3′-bipyridin]-6′-yl)-4,5,6,7-tetrahydro-1H-pyrazolo[4,3-c]pyridine-3-carboxamide] |  |  | 4 | IC50 [1, 6]: 29 nM |
| CCC1Cc2c(c(C(=O)NCc3ccc(NC(=O)N(C)C)cc3)nn2CC)CN1c1ccc(C(=O)N(C)C)cn1 (single isomer, unassigned) [Example 117, rel-(R or S)-5-(5-(dimethylcarbamoyl)pyridin-2-yl)-N-(4-(3,3-dimethylureido)benzyl)-1,6-diethyl-4,5,6,7-tetrahydro-1H-pyrazolo[4,3-c]pyridine-3-carboxamide] | 3 |  |  | IC50 [1, 7]: 13 nM |
